Experimental data taken from article PMC7083800, “Production and characterization of Aspergillus niger GH29 family α-fucosidase and production of a novel non-reducing 1-fucosyllactose” (Glycoconjugate Journal, 2019).

Test system: T1, A. niger GH29 α-fucosidase (long version, pPFucA-L)
T1 construct: gene FucA; C-terminal His-tag kept; codon-optimized, secreted from Pichia pastoris
Assay: pNP release, absorbance at […] nm
Format: biochemical, Aspergillus niger
Conditions: 50 mM Na-acetate buffer assay, pH 3.6, 45 °C; 0.05-3 mM substrate; read-out: apparent Km

With `C[C@@H]1O[C@@H](Oc2ccc([N+](=O)[O-])cc2)[C@@H](O)[C@H](O)[C@@H]1O` [pNP-fucose, 4-Nitrophenyl α-L-fucopyranoside] the Km was 390 µM.
